# Assay results taken from patent publication US9126941B2, “Treatment of hyperproliferative disorders with diarylhydantoin compounds” (The Regents of the University of California, priority 2005, dated 2015).
# Read-outs that look alike come from different tables or passages of the source.
# Key:
# Experiment in all cases: cell-based
# AR [1] = biological target: T1, AR (Homo sapiens, UniProt P10275); conditions: for Agonistic activity on AR, reporter: LN-AR, absence of R1881; for fold induction at 0.1 µM: read-out: Fold induction of AR response reporter, 0.1 μM; for fold induction at 1 µM: read-out: Fold induction of AR response reporter, 1 μM; for fold induction at 10 µM: read-out: Fold induction of AR response reporter, 10 μM
# T1 sequence (P10275 whole entry, looked up): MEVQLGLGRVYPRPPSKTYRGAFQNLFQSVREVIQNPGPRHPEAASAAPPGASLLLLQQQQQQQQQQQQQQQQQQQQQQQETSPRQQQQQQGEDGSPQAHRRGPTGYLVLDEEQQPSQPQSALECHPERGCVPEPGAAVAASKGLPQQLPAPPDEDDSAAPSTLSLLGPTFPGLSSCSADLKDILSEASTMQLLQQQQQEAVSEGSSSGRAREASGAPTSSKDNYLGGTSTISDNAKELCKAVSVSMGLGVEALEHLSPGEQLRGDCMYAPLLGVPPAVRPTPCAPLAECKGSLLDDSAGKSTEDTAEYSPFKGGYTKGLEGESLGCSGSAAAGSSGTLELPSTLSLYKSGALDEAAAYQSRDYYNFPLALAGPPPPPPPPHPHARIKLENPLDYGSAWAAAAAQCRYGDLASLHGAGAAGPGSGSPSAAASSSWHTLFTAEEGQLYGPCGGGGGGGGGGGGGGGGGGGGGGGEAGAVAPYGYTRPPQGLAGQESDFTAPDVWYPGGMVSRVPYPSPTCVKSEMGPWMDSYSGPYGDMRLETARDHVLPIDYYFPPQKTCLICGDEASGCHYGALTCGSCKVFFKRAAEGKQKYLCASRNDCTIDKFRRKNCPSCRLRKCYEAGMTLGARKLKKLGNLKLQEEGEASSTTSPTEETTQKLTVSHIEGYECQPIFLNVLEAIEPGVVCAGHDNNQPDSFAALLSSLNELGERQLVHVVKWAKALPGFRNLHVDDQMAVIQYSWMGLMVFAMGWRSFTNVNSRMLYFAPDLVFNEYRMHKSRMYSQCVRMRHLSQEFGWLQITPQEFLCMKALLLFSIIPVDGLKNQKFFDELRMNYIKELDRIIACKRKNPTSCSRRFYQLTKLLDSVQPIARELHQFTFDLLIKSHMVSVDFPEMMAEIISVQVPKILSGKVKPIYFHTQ
# Text: Table 2 lists the agonistic activities of different compounds.
# AR [2] = biological target: T1, AR; assay type: cell-based
# AR [3] = biological target: T1, AR; assay type: cell-based; conditions: for IC50 (nM) Reporter / Inhibitory activity on AR in reporter system: LNCaP-AR; for IC50 (nM) Reporter: 100 pM R1881, two days, No = did not inhibit AR response reporter; for Inhibitory activity on AR in reporter system: hormone refractory
# Protocol: The compounds were subjected to tests using an artificial AR response reporter system in a hormone refractory prostate cancer cell line. […] After two days of incubation, reporter activities were assayed.
# AR [4] = biological target: T1, AR; assay type: cell-based; conditions: for Rank order, most active to least active, relative PSA level (FIG. 4): 500 nM; for Decrease in PSA level of LNCaP-AR cells, comparison (FIG. 4): at concentrations of 1000 nM; for PSA levels of LN-AR cells (FIG. 21): doses of 100, 200, 500 and 1000 nM
# Protocol: It is well established that PSA levels are indicators of AR activities in prostate cancer. […] The LNCaP-AR cells are a line of lymph node carcinoma of prostate cells transduced with a plasmid that makes express androgen receptors. […] After four days incubation, secreted PSA levels were assayed using PSA ELISA kits (American Qualex, San Clemente, Calif.)
smiles,measurement,setting,value
"Cc1ccc(N2C(=S)N(c3ccc(C#N)c(C(F)(F)F)c3)C(=NC(=S)Nc3ccc(C#N)c(C(F)(F)F)c3)C23CCC3)cc1 [RD93, 1-(4-Cyano-3-trifluoromethyl-phenyl)-3-[7-(4-cyano-3-trifluoromethyl-phenyl)-6-thioxo-5-p-tolyl-5,7-diaza-spiro[3.4]oct-8-ylidene]-thiourea]","Agonistic activity on AR, reporter",AR [1],no agonistic activity
same,fold induction at 0.1 µM,AR [1],1.26
same,fold induction at 1 µM,AR [1],1.1
same,fold induction at 10 µM,AR [1],1.3
same,"Agonistic activity, secreted PSA","AR [2]; AR over expressed LNCaP, absence of R1881",no agonistic activities
same,fold induction at 0.1 µM,"AR [2]; LNCaP, read-out: Fold induction of endogenous PSA, 0.1 μM",1.44
same,fold induction at 1 µM,"AR [2]; LNCaP, read-out: Fold induction of endogenous PSA, 1 μM",1.3
same,fold induction at 10 µM,"AR [2]; LNCaP, read-out: Fold induction of endogenous PSA, 10 μM",1.05
"N#Cc1ccc(N2C(=O)C3(CCC3)N(c3ccc(N4CCNCC4)cc3)C2=S)cc1C(F)(F)F [RD137, 4-[8-Oxo-5-(4-piperazin-1-yl-phenyl)-6-thioxo-5,7-diazaspiro[3,4]oct-7-yl]-2-trifluoromethylbenzonitrile]",IC50,AR [3],718 nM
same,"Rank order, most active to least active, relative PSA level (FIG. 4)",AR [4],RD138>RD131>RD37>RD133>RD134>RD137>RD138>RD135>bicalutamide
same,"Decrease in PSA level of LNCaP-AR cells, comparison (FIG. 4)",AR [4],greater decrease in PSA level than bicalutamide
"CS(=O)(=O)N1CCN(c2ccc(N3C(=S)N(c4ccc(C#N)c(C(F)(F)F)c4)C(=O)C34CCC4)cc2)CC1 [RD138, 4-{5-[4-(4-methanesulfonylpiperazin-1-yl)-phenyl]-8-oxo-6-thioxo-5,7-diazaspiro[3.4]oct-7-yl}-2-trifluoromethylbenzonitrile]",IC50,AR [3],138 nM
same,"Rank order, most active to least active, relative PSA level (FIG. 4)",AR [4],RD138>RD131>RD37>RD133>RD134>RD137>RD138>RD135>bicalutamide
same,"Decrease in PSA level of LNCaP-AR cells, comparison (FIG. 4)",AR [4],greater decrease in PSA level of LNCaP-AR cells than RD135 and RD137
"CC1(C)C(=O)N(c2ccc(C#N)c(C(F)(F)F)c2)C(=S)N1c1ccccc1C(=O)O [RD65, 2-[3-(4-cyano-3-trifluoromethylphenyl)-5,5-dimethyl-4-oxo-2-thioxoimidazolidin-1-yl]benzoic acid]",IC50,AR [3],523 nM
same,IC50,AR [4],> 500 nM
"CN1C(=O)N(c2ccc(C#N)c(C(F)(F)F)c2)C(=O)C12CCCC2 [RD76, 4-(1-methyl-2,4-dioxo-1,3-diaza-spiro[4.4]non-3-yl)-2-trifluoromethylbenzonitrile]",IC50 (nM) Reporter,AR [3],No
same,Inhibitory activity on AR in reporter system,AR [3],no inhibitory activities
same,IC50 (nM) PSA,AR [4],No
same,"Agonistic activity on AR, reporter",AR [1],strongly activated AR
same,fold induction at 0.1 µM,AR [1],12
same,fold induction at 1 µM,AR [1],19.8
same,fold induction at 10 µM,AR [1],39
"N#Cc1ccc(N2C(=O)C3(CCC3)N(c3ccc(CCC(=O)NCCO)cc3)C2=S)cc1C(F)(F)F [RD135, 3-{4-[7-(4-cyano-3-trifluoromethylphenyl)-8-oxo-6-thioxo-5,7-diaza-spiro[3.4]oct-5-yl]-phenyl}-N-(2-hydroxyethyl)-propionamide]",IC50,AR [3],732 nM
same,"Rank order, most active to least active, relative PSA level (FIG. 4)",AR [4],RD138>RD131>RD37>RD133>RD134>RD137>RD138>RD135>bicalutamide
same,"Decrease in PSA level of LNCaP-AR cells, comparison (FIG. 4)",AR [4],greater decrease in PSA level than bicalutamide
"N#Cc1ccc(N2C(=O)C3(CCC3)N(c3ccc(CCC(N)=O)cc3)C2=S)cc1C(F)(F)F [RD133, 3-{4-[7-(4-cyano-3-trifluoromethylphenyl)-8-oxo-6-thioxo-5,7-diaza-spiro[3.4]oct-5-yl]-phenyl}-propionamide]",IC50,AR [3],224 nM
same,"Rank order, most active to least active, relative PSA level (FIG. 4)",AR [4],RD138>RD131>RD37>RD133>RD134>RD137>RD138>RD135>bicalutamide
same,"Decrease in PSA level of LNCaP-AR cells, comparison (FIG. 4)",AR [4],greater decrease in PSA level of LNCaP-AR cells than RD135 and RD137
"CC1(C)C(=S)N(c2ccc(C#N)c(C(F)(F)F)c2)C(=S)N1c1ccc(O)cc1 [RD59, 4-[3-(4-hydroxyphenyl)-4,4-dimethyl-2,5-dithioxoazolidin-1-yl]-2-trifluoromethylbenzonitrile]",IC50,AR [3],278 nM
same,IC50,AR [4],287 nM
"Cc1ccc(N2C(=S)N(c3ccc(C#N)c(C(F)(F)F)c3)C(=O)C2(C)CF)cc1 (stereo not shown) [RD68, 4-(4-fluoromethyl-4-methyl-5-oxo-2-thioxo-3-(4-methylphenyl)imidazolidin-1-yl)-2-trifluoromethylbenzonitrile]",IC50,AR [3],126 nM
same,IC50,AR [4],129 nM
"CNC(=O)CCc1ccc(N2C(=S)N(c3ccc(C#N)c(C(F)(F)F)c3)C(=O)C23CCC3)cc1 [RD134, 3-{4-[7-(4-Cyano-3-trifluoromethylphenyl)-8-oxo-6-thioxo-5,7-diaza-spiro[3.4]oct-5-yl]-phenyl}-N-methyl-propionamide]",IC50,AR [3],234 nM
same,"Rank order, most active to least active, relative PSA level (FIG. 4)",AR [4],RD138>RD131>RD37>RD133>RD134>RD137>RD138>RD135>bicalutamide
same,"Decrease in PSA level of LNCaP-AR cells, comparison (FIG. 4)",AR [4],greater decrease in PSA level of LNCaP-AR cells than RD135 and RD137
"N#Cc1ccc(N2C(=O)C3(CCCC3)NC2=S)cc1C(F)(F)F [RD77, 4-(4-oxo-2-thioxo-1,3-diazaspiro[4.4]non-3-yl)-2-trifluoromethylbenzonitrile]",IC50 (nM) Reporter,AR [3],No
same,Inhibitory activity on AR in reporter system,AR [3],no inhibitory activities
same,IC50 (nM) PSA,AR [4],No
same,"Agonistic activity on AR, reporter",AR [1],strongly activated AR
same,fold induction at 0.1 µM,AR [1],14.9
same,fold induction at 1 µM,AR [1],22.5
same,fold induction at 10 µM,AR [1],37.1
"Cc1ccc(N2C(=S)N(c3ccc(C#N)c(C(F)(F)F)c3)C(=O)C2(CCl)CCl)cc1 [RD67, 4-(4,4-bischloromethyl-5-oxo-2-thioxo-3-(4-methylphenyl)imidazolidin-1-yl)-2-trifluoromethylbenzonitrile]",IC50,AR [3],521 nM
same,IC50,AR [4],> 500 nM
"N#Cc1ccc(N2C(=O)C3(CCC3)N(c3ccc(CCCC(N)=O)cc3)C2=S)cc1C(F)(F)F [RD130, 4-{4-[7-(4-Cyano-3-trifluoromethylphenyl)-8-oxo-6-thioxo-5,7-diaza-spiro[3.4]oct-5-yl]-phenyl}-butyramide]",IC50,AR [3],112 nM
same,"PSA level, LN/AR cell line, comparison",AR [4]; for a given dose / concentration,less than the PSA level upon exposure to RD128 and RD129
"CC1(C)C(=O)N(c2ccc(C#N)c(C(F)(F)F)c2)C(=S)N1c1ccc(C(F)(F)F)cc1 [RD66, 4-(4,4-dimethyl-5-oxo-2-thioxo-3-(4-trifluoromethylphenyl)imidazolidin-1-yl)-2-trifluoromethylbenzonitrile]",IC50,AR [3],143 nM
same,IC50,AR [4],144 nM
"N#Cc1ccc(N2C(=O)C3(CCC3)N(c3ccc(/C=C/C(N)=O)cc3)C2=S)cc1C(F)(F)F [RD119, 3-{4-[7-(4-Cyano-3-trifluoromethyl-phenyl)-8-oxo-6-thioxo-5,7-diaza-spiro[3.4]oct-5-yl]-phenyl}-acrylamide]",IC50,AR [4],113 nM
"CN(C)C(=O)CCCc1ccc(N2C(=S)N(c3ccc(C#N)c(C(F)(F)F)c3)C(=O)C23CCC3)cc1 [RD169, 4-(4-(7-(4-Cyano-3-(trifluoromethyl)phenyl)-8-oxo-6-thioxo-5,7-diazaspiro[3.4]octan-5-yl)phenyl)-N,N-dimethylbutanamide]",PSA levels of LN-AR cells (FIG. 21),AR [4],decreased
"CNC(=O)c1ccc(N2C(=S)N(c3ccc(C#N)c(C(F)(F)F)c3)C(=O)C23CCCC3)cc1F [RD162″, 4-(3-(4-Cyano-3-(trifluoromethyl)phenyl)-4-oxo-2-thioxo-1,3-diazaspiro[4.4]nonan-1-yl)-2-fluoro-N-methylbenzamide]",PSA levels of LN-AR cells (FIG. 21),AR [4],decreased
